Test results: PubChem BioAssay AID248 (DTP/NCI, 2004)
Several values for one entry are separate records, joined by “and”; a condition that tells them apart may be missing. Equal values may be shown once. Toxic doses and inconclusive results are not listed. No stated cut-off is given here; in the data, active means T/C of 150% or more; inactive means T/C below 125%.

System: L1210 leukemia ip in BDF1 mice, survival T/C
Assay: NCI In Vivo Anticancer Drug Screen. Data for tumor model L1210 Leukemia (intraperitoneal) in B6D2F1 (BDF1) mice
Conditions: higher = longer survival
Outline: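 Transplantable tumor model; survival measured in treated vs vehicle control mice. Value = treated/control.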

[1] = endpoint: mean survival time, dose: 12.5 mg/kg/injection, schedule: Q01DX009 (ip), vehicle: Klucel (hydroxypropylcellulose) (HPC)
[2] = endpoint: mean survival time, dose: 25.0 mg/kg/injection, schedule: Q01DX009 (ip), vehicle: Klucel (hydroxypropylcellulose) (HPC)
[3] = endpoint: mean survival time, dose: 50.0 mg/kg/injection, schedule: Q01DX009 (ip), vehicle: Klucel (hydroxypropylcellulose) (HPC)
[4] = endpoint: mean survival time, dose: 50.0 mg/kg/injection, schedule: Q04DX003 (ip), vehicle: saline
[5] = endpoint: mean survival time, dose: 100.0 mg/kg/injection, schedule: Q04DX003 (ip), vehicle: saline
[6] = endpoint: mean survival time, dose: 200.0 mg/kg/injection, schedule: Q04DX003 (ip), vehicle: saline
[7] = endpoint: mean survival time, dose: 400.0 mg/kg/injection, schedule: Q04DX003 (ip), vehicle: saline
[8] = endpoint: mean survival time, dose: 100.0 mg/kg/injection, schedule: Q04DX003 (ip), vehicle: Klucel (hydroxypropylcellulose) (HPC)
[9] = endpoint: mean survival time, dose: 200.0 mg/kg/injection, schedule: Q04DX003 (ip), vehicle: Klucel (hydroxypropylcellulose) (HPC)
[10] = endpoint: mean survival time, dose: 400.0 mg/kg/injection, schedule: Q04DX003 (ip), vehicle: Klucel (hydroxypropylcellulose) (HPC)
[11] = endpoint: mean survival time, dose: 100.0 mg/kg/injection, schedule: Q01DX009 (ip), vehicle: saline
[12] = endpoint: mean survival time, dose: 200.0 mg/kg/injection, schedule: Q01DX009 (ip), vehicle: saline
[13] = endpoint: mean survival time, dose: 400.0 mg/kg/injection, schedule: Q01DX009 (ip), vehicle: saline
[14] = endpoint: mean survival time, dose: 100.0 mg/kg/injection, schedule: Q01DX009 (ip), vehicle: Klucel (hydroxypropylcellulose) (HPC)

Measured: T/C

Cn1cc(NC(=O)c2cc(NC(=O)c3cc(NC=O)cn3C)cn2C)cc1C(=O)NCCC(=N)N
inactive: [1] 95 % of control | [2] 98 % of control | endpoint: mean survival time, dose: 25.0 mg/kg/injection, schedule: Q01DX Z (ip), vehicle: water 100 % of control | [3] 92 % of control | endpoint: mean survival time, dose: 50.0 mg/kg/injection, schedule: Q01DX Z (ip), vehicle: water 104 % of control | endpoint: mean survival time, dose: 75.0 mg/kg/injection, schedule: Q01DX Z (ip), vehicle: water 104 % of control | endpoint: mean survival time, dose: 100.0 mg/kg/injection, schedule: Q01DX Z (ip), vehicle: water 100 % of control

O=C(c1ccccc1)C(O)(CC(c1ccccc1)[P+](c1ccccc1)(c1ccccc1)c1ccccc1)c1ccccc1 (configuration not stated)
inactive: endpoint: mean survival time, dose: 1.75 mg/kg/injection, schedule: Q01DX009 (ip), vehicle: saline 93 % of control | endpoint: mean survival time, dose: 3.5 mg/kg/injection, schedule: Q01DX009 (ip), vehicle: saline 93 % of control | endpoint: mean survival time, dose: 6.25 mg/kg/injection, schedule: Q01DX009 (ip), vehicle: Klucel (hydroxypropylcellulose) (HPC) 102 % of control | [1] 107 % of control | endpoint: mean survival time, dose: 400.0 mg/kg/injection, schedule: Q01DX001 (ip), vehicle: saline with Tween-80 87 % of control

O=C1CC(=P(c2ccccc2)(c2ccccc2)c2ccccc2)C(=O)N1c1cccc2ccc(O)cc12
inactive: endpoint: mean survival time, dose: 75.0 mg/kg/injection, schedule: Q01DX001 (ip), vehicle: saline 101 % of control | endpoint: mean survival time, dose: 150.0 mg/kg/injection, schedule: Q01DX001 (ip), vehicle: saline 96 % of control | endpoint: mean survival time, dose: 300.0 mg/kg/injection, schedule: Q01DX001 (ip), vehicle: saline 95 % of control

O=C(O)c1ccc(S(=O)(=O)N(Cl)Cl)cc1
inactive: endpoint: mean survival time, dose: 100.0 mg/kg/injection, schedule: Q01DX009 (ip), vehicle: saline with Tween-80 96 % of control | endpoint: mean survival time, dose: 200.0 mg/kg/injection, schedule: Q01DX009 (ip), vehicle: saline with Tween-80 100 % of control | endpoint: mean survival time, dose: 400.0 mg/kg/injection, schedule: Q01DX009 (ip), vehicle: saline with Tween-80 98 % of control

Br/C=C/C[N+]12CN3CN(CN(C3)C1)C2
inactive: endpoint: mean survival time, dose: 12.5 mg/kg/injection, schedule: Q01DX009 (ip), vehicle: saline 95 % of control | endpoint: mean survival time, dose: 12.5 mg/kg/injection, schedule: Q04DX003 (ip), vehicle: saline 101 % of control | endpoint: mean survival time, dose: 25.0 mg/kg/injection, schedule: Q01DX009 (ip), vehicle: saline 101 % of control | endpoint: mean survival time, dose: 25.0 mg/kg/injection, schedule: Q04DX003 (ip), vehicle: saline 102 % of control | endpoint: mean survival time, dose: 50.0 mg/kg/injection, schedule: Q01DX009 (ip), vehicle: saline 96 % of control | [4] 98 % of control

O=S(=O)(O)c1cc(O)c2c(O)c(N=Nc3ccccc3[As](=O)(O)O)c(S(=O)(=O)O)cc2c1
inactive: [4] 102 % of control | [5] 98 % of control and 99 % of control | [6] 103 % of control and 120 % of control | [7] 101 % of control and 103 % of control

O=C1OCCN1S(=O)(=O)c1ccc(Cl)cc1
inactive: [8] 104 % of control | [9] 95 % of control | [10] 96 % of control

CN(C)CCC(CNC1=NCCN1)c1cccc2ccccc12 (configuration not stated)
inactive: endpoint: mean survival time, dose: 25.0 mg/kg/injection, schedule: Q04DX002 (ip), vehicle: saline with Tween-80 108 % of control | endpoint: mean survival time, dose: 50.0 mg/kg/injection, schedule: Q04DX002 (ip), vehicle: saline with Tween-80 101 % of control | endpoint: mean survival time, dose: 100.0 mg/kg/injection, schedule: Q04DX002 (ip), vehicle: saline with Tween-80 101 % of control

Cc1noc2c1ncc[n+]2[O-]
inactive: endpoint: mean survival time, dose: 5.0 mg/kg/injection, schedule: Q01DX009 (ip), vehicle: saline with Tween-80 89 % of control | endpoint: mean survival time, dose: 10.0 mg/kg/injection, schedule: Q01DX009 (ip), vehicle: saline with Tween-80 91 % of control | endpoint: mean survival time, dose: 20.0 mg/kg/injection, schedule: Q01DX009 (ip), vehicle: saline with Tween-80 86 % of control

CCCCCCCCCCCCCCCC[N+](C)(CCO)Cc1ccccc1 (configuration not stated)
inactive: endpoint: mean survival time, dose: 12.5 mg/kg/injection, schedule: Q04DX002 (ip), vehicle: saline with Tween-80 93 % of control

COc1cc(CNC(=O)/C(C)=C/Cl)ccc1O
inactive: endpoint: mean survival time, dose: 12.5 mg/kg/injection, schedule: Q04DX003 (ip), vehicle: saline with Tween-80 96 % of control | endpoint: mean survival time, dose: 25.0 mg/kg/injection, schedule: Q04DX003 (ip), vehicle: saline with Tween-80 96 % of control | endpoint: mean survival time, dose: 50.0 mg/kg/injection, schedule: Q04DX003 (ip), vehicle: saline with Tween-80 103 % of control

ClC(c1ccccc1)(c1ccccc1)c1ccccc1
inactive: endpoint: mean survival time, dose: 50.0 mg/kg/injection, schedule: Q01DX001 (ip), vehicle: other 96 % of control | endpoint: mean survival time, dose: 100.0 mg/kg/injection, schedule: Q01DX001 (ip), vehicle: other 102 % of control | [11] 87 % of control | [5] 90 % of control | endpoint: mean survival time, dose: 200.0 mg/kg/injection, schedule: Q01DX001 (ip), vehicle: other 106 % of control | [12] 94 % of control | [6] 93 % of control | endpoint: mean survival time, dose: 400.0 mg/kg/injection, schedule: Q01DX001 (ip), vehicle: other 100 % of control | [13] 90 % of control | [7] 88 % of control

O=C(O)CC(SC(c1ccccc1)(c1ccccc1)c1ccccc1)C(=O)O (configuration not stated)
inactive: [14] 93 % of control | [8] 98 % of control | endpoint: mean survival time, dose: 200.0 mg/kg/injection, schedule: Q01DX009 (ip), vehicle: Klucel (hydroxypropylcellulose) (HPC) 90 % of control | [9] 102 % of control | [10] 96 % of control

Cc1ccc(S(=O)(=O)F)cc1C(=O)NCc1ccc(OCc2nc(N)nc(N)c2-c2ccc(Cl)c(Cl)c2)cc1
inactive: endpoint: mean survival time, dose: 32.5 mg/kg/injection, schedule: Q01DX001 (ip), vehicle: Klucel (hydroxypropylcellulose) (HPC) 96 % of control | endpoint: mean survival time, dose: 65.0 mg/kg/injection, schedule: Q01DX001 (ip), vehicle: Klucel (hydroxypropylcellulose) (HPC) 96 % of control | endpoint: mean survival time, dose: 130.0 mg/kg/injection, schedule: Q01DX001 (ip), vehicle: Klucel (hydroxypropylcellulose) (HPC) 96 % of control

COc1cc(N=Nc2cccc([N+](=O)[O-])c2)ccc1N(CCCl)CCCl
inactive: endpoint: median survival time, dose: 100.0 mg/kg/injection, schedule: Q01DX009 (ip), vehicle: Klucel (hydroxypropylcellulose) (HPC) 98 % of control | endpoint: median survival time, dose: 200.0 mg/kg/injection, schedule: Q01DX009 (ip), vehicle: Klucel (hydroxypropylcellulose) (HPC) 100 % of control | endpoint: median survival time, dose: 400.0 mg/kg/injection, schedule: Q01DX009 (ip), vehicle: Klucel (hydroxypropylcellulose) (HPC) 104 % of control

CC(=O)CSc1ccc(C(C)(C)C)cc1
inactive: endpoint: mean survival time, dose: 100.0 mg/kg/injection, schedule: Q01DX001 (ip), vehicle: carboxymethylcellulose (CMC) 102 % of control | endpoint: mean survival time, dose: 200.0 mg/kg/injection, schedule: Q01DX001 (ip), vehicle: carboxymethylcellulose (CMC) 96 % of control | endpoint: mean survival time, dose: 400.0 mg/kg/injection, schedule: Q01DX001 (ip), vehicle: carboxymethylcellulose (CMC) 105 % of control

Nc1nc(Br)c(Br)nc1C(=O)O
inactive: [1] 101 % of control and 103 % of control | [2] 97 % of control | endpoint: mean survival time, dose: 50.0 mg/kg/injection, schedule: Q01DX001 (ip), vehicle: Klucel (hydroxypropylcellulose) (HPC) 101 % of control | [3] 95 % of control and 91 % of control | endpoint: mean survival time, dose: 50.0 mg/kg/injection, schedule: Q04DX002 (ip), vehicle: Klucel (hydroxypropylcellulose) (HPC) 104 % of control | endpoint: mean survival time, dose: 50.0 mg/kg/injection, schedule: Q04DX003 (ip), vehicle: Klucel (hydroxypropylcellulose) (HPC) 103 % of control | endpoint: mean survival time, dose: 100.0 mg/kg/injection, schedule: Q01DX001 (ip), vehicle: Klucel (hydroxypropylcellulose) (HPC) 102 % of control | endpoint: mean survival time, dose: 100.0 mg/kg/injection, schedule: Q04DX002 (ip), vehicle: Klucel (hydroxypropylcellulose) (HPC) 100 % of control | [8] 106 % of control | endpoint: mean survival time, dose: 200.0 mg/kg/injection, schedule: Q01DX001 (ip), vehicle: Klucel (hydroxypropylcellulose) (HPC) 96 % of control

CSCCC(NC(=O)c1ccccc1)C(=O)O (configuration not stated)
inactive: [8] 94 % of control | [9] 92 % of control | [10] 94 % of control

COc1nccnc1NS(=O)(=O)c1ccc(N)cc1
inactive: endpoint: mean survival time, dose: 100.0 mg/kg/injection, schedule: Q01DX001 (ip), vehicle: saline 95 % of control | [11] 92 % of control | endpoint: mean survival time, dose: 200.0 mg/kg/injection, schedule: Q01DX001 (ip), vehicle: saline 96 % of control | [12] 106 % of control | endpoint: mean survival time, dose: 400.0 mg/kg/injection, schedule: Q01DX001 (ip), vehicle: saline 102 % of control | [13] 92 % of control

O=C(CI)Nc1ccc(Cl)c(Cl)c1
inactive: [2] 95 % of control | [3] 94 % of control | [14] 93 % of control
